Experimental data published in PubChem BioAssay AID2820 (Sanford-Burnham Center for Chemical Genomics, 2010).
pIC50: −log10 of the molar value.

Target: G-protein coupled receptor 55 (Homo sapiens) (UniProt Q9Y2T6)
Assay: blockade of LPI-induced GPR55 arrestin translocation – imaging, U2OS, beta-arrestin-GFP, LPI agonist, set 2, SAR follow-up (AID 2820)
Conditions: LPI antagonism

Chain of G-protein coupled receptor 55 (Homo sapiens) (Q9Y2T6 whole entry, looked up): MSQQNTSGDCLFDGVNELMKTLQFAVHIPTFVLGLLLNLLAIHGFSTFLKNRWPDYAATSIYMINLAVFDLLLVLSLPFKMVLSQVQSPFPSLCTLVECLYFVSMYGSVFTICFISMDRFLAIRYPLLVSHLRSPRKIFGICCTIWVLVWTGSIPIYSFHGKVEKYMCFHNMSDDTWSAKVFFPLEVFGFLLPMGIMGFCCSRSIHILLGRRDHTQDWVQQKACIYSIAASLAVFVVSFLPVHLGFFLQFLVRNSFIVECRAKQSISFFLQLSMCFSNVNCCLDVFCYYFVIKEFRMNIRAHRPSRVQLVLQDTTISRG

| pIC50 | Compound |
| --- | --- |
| 5.96 | Cc1cc(OCC(=O)Nc2ccc(S(=O)(=O)NC3=NCCCCC3)cc2)c(C(C)C)cc1Cl |
| 5.97 | Cc1ccc(C2(C(=O)N3CCC(n4nc(-c5ccccc5)oc4=O)CC3)CC2)cc1 |
| 6.06 | O=C(c1ccco1)N1CCN(c2nc(C3CC3)nc3sc4c(c23)CCCC4)CC1 |

| Compound | pIC50 |
| --- | --- |
| Cc1nc(N2CCN(C(=O)c3ccco3)CC2)c2c3c(sc2n1)CCCC3 | 6.15 |
